{
  "source": "paper PMC11999265",
  "about": "“New routes for spermine biosynthesis” (The Journal of Biological Chemistry, 2025)",
  "key": {"[1]": {"molecular_target": "T1, Psychromonas marina CASDH (Psychromonas marina, UniProt A0ABQ6DYR2)", "T1 sequence (A0ABQ6DYR2 1-405)": "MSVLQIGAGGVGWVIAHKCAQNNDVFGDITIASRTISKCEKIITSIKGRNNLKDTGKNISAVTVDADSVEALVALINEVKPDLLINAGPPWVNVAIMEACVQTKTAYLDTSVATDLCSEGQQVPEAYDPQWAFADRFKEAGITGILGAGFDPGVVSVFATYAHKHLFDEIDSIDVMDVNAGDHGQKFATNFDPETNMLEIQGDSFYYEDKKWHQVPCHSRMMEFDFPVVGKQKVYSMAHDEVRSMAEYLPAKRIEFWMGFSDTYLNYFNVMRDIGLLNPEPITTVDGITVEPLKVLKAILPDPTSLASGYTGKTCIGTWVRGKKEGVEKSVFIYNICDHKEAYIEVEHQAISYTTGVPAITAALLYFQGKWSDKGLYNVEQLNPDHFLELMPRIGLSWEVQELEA", "assay": "LC-MS of benzoylated spermidine in E. coli extract", "type": "cell-based", "details": "endogenous putrescine, BL21speD, coexpressed with CASDC"}, "Brucella abortus CASDH": {"molecular_target": "T2, Brucella abortus CASDH (Brucella abortus, UniProt Q2YPK8)", "T2 construct": "gene BAB1_0364", "details": "endogenous putrescine, BL21speD, coexpressed with CASDC"}},
  "data": [
    {"smiles": "NCCCCN", "note": "[putrescine]", "values": [
      {"measurement": "LC-MS of benzoylated spermidine in E. coli extract", "setting": "[1]", "value": "all CASDH/CASDC pairs were able to synthesize spermidine in the spermidine-void BL21speD cells"},
      {"measurement": "LC-MS of benzoylated spermidine in E. coli extract", "setting": "Brucella abortus CASDH", "value": "all CASDH/CASDC pairs were able to synthesize spermidine in the spermidine-void BL21speD cells"}
    ]}
  ]
}
